From ChEMBL document CHEMBL1221359, “The discovery of a series of N-substituted 3-(4-piperidinyl)-1,3-benzoxazolinones and oxindoles as highly brain penetrant, selective muscarinic M1 agonists” (Bioorg Med Chem Lett, 2010)
Calls of active or inactive are those of the source. The calls are words filed in the database; no cut-off is given here.

Experiments:
[1] = molecular target: T1, Muscarinic acetylcholine receptor M1 (Homo sapiens, UniProt P11229); test: Agonist activity at human muscarinic M1 receptor expressed in CHO cells assessed as effect on calcium mobilization by FLIPR assay; type: functional, cell-based
T1 sequence (P11229 whole entry): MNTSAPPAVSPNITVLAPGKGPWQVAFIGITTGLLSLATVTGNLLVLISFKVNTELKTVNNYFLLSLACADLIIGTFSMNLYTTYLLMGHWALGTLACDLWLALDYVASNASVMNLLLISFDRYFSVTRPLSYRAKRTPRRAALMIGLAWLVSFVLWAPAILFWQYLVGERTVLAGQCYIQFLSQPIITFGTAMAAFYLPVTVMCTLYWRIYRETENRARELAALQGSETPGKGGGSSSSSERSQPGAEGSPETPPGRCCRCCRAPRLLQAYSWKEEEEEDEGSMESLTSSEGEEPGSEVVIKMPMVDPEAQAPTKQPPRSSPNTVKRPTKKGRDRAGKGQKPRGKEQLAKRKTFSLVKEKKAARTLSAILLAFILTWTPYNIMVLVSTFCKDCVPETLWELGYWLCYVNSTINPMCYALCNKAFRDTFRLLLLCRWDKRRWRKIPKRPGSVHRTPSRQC

[2] = molecular target: T2, Muscarinic acetylcholine receptor M2 (Homo sapiens, UniProt P08172); test: Agonist activity at human muscarinic M2 receptor expressed in CHO cells co-expressing Gqi5 chimeric G-protein assessed as effect on calcium mobilization by FLIPR assay; type: functional, cell-based
T2 sequence (P08172 whole entry): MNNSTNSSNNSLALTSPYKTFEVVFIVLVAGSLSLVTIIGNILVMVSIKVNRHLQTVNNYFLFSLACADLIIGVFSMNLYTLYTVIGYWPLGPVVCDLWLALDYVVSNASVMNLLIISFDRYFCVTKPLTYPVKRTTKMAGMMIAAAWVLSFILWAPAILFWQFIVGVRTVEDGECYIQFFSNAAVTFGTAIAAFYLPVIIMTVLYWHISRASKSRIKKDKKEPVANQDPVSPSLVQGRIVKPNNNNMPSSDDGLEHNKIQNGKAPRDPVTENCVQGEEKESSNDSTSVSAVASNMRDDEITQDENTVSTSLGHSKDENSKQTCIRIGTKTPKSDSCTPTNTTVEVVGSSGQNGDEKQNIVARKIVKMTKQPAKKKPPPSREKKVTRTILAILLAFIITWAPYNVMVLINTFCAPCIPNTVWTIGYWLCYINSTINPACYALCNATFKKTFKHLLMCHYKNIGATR

[3] = molecular target: Muscarinic acetylcholine receptor M3 (Homo sapiens, UniProt P20309); test: Agonist activity at human muscarinic M3 receptor expressed in CHO cells assessed as effect on calcium mobilization by FLIPR assay; type: functional, cell-based
[4] = molecular target: T3, Muscarinic acetylcholine receptor M4 (Homo sapiens, UniProt P08173); test: Agonist activity at human muscarinic M4 receptor expressed in CHO cells co-expressing Gqi5 chimeric G-protein assessed as effect on calcium mobilization by FLIPR assay; type: functional, cell-based
T3 sequence (P08173 whole entry): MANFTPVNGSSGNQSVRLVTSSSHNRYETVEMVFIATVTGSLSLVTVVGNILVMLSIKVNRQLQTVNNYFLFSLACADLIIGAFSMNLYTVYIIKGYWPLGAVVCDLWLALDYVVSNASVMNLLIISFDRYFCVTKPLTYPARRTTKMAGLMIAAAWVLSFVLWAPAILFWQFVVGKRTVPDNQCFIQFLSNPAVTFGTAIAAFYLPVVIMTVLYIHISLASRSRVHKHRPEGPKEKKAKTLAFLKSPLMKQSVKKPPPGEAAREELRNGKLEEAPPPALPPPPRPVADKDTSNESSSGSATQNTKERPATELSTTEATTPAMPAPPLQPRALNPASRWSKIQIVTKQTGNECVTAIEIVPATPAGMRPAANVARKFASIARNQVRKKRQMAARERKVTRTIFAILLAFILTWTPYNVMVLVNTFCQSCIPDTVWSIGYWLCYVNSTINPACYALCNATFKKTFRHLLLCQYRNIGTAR

[5] = molecular target: T4, Muscarinic acetylcholine receptor M5 (Homo sapiens, UniProt P08912); test: Agonist activity at human muscarinic M5 receptor expressed in CHO cells assessed as effect on calcium mobilization by FLIPR assay; type: functional, cell-based
T4 sequence (P08912 whole entry): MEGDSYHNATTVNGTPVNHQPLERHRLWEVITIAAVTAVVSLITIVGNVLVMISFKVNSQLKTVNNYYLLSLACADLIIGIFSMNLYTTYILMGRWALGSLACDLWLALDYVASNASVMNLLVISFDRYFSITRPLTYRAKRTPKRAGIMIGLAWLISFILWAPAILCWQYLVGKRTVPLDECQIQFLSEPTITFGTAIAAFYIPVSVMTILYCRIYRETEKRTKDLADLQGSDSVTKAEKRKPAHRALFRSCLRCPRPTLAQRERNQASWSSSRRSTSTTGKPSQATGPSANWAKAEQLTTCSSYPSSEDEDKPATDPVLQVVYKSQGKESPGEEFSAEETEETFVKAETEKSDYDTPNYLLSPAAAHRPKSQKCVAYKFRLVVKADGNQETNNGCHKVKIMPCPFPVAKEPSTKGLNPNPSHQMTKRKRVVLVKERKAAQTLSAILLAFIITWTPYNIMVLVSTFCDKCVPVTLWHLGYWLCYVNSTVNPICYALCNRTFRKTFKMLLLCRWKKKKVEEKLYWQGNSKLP

[6] = Clearance in rat blood at 3 mg/kg, po; type: ADME, organism-based; parameters: dose 3 mg/kg, route oral
[7] = Ratio of drug level in brain to blood in rat at 3 mg/kg, po; type: ADME, organism-based; parameters: dose 3 mg/kg, route oral
Brain = test: Drug level in rat brain assessed as tissue binding; type: ADME, tissue-based
[8] = Drug level in rat whole blood assessed as tissue binding; type: ADME, tissue-based
[9] = Inhibition of sigma receptor at 10 uM
Rattus norvegicus [10] = test: Cognitive enhancing effect in rat assessed as reversal of temporal-induced memory deficit at 1 mg/kg by novel object recognition assay; type: functional, organism-based; parameters: dose 1 mg/kg
Rattus norvegicus [11] = species on record: Rattus norvegicus; test: Cognitive enhancing effect in rat assessed as reversal of temporal-induced memory deficit by novel object recognition assay; type: functional, organism-based
[12] = Ratio of drug level in brain to blood in rat at 1 mg/kg, iv; type: ADME, organism-based; parameters: dose 1 mg/kg, route intravenous

Muscarinic acetylcholine receptor M3, sequence (P20309 whole entry): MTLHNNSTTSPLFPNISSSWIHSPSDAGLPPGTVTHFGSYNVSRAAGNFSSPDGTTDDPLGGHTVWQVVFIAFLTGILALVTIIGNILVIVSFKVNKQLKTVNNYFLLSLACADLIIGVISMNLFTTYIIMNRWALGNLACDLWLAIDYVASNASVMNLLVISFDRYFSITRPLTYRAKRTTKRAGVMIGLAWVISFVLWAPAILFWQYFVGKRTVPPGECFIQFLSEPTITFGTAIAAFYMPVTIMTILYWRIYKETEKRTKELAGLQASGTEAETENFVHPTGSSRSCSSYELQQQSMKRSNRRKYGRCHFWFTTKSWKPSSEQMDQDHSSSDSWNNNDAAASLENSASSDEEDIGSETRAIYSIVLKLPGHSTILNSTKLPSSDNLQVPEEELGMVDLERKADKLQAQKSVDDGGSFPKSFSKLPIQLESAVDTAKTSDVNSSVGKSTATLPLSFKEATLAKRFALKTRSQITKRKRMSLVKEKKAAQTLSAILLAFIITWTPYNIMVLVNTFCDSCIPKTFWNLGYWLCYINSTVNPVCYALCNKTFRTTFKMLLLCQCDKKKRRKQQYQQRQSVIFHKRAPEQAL

SMILES | EC50 [1] | EC50 [2] | EC50 [3] | EC50 [4] | EC50 [5] | CL/F [6] | Kp [7] | Drug uptake (Brain) | Drug uptake [8] | inhibition [9] | Activity (Rattus norvegicus [10]) | Activity (Rattus norvegicus [11]) | Kp [12]
CCO[C@H]1CC[C@](C)(N2CCC(n3c(=O)oc4cc(F)c(C)cc43)CC2)CC1 | 0.001 µM | 0.501 µM | 0.794 µM | 0.1 µM | 0.0501 µM | – | – | – | – | – | – | – | –
CCO[C@H]1CC[C@](C)(N2CCC(n3c(=O)oc4c(F)cc(C)cc43)CC2)CC1 | 0.00126 µM | 0.794 µM | 2 µM | 0.2 µM | 0.158 µM | – | – | – | – | – | – | – | –
CCO[C@H]1CC[C@](C)(N2CCC(n3c(=O)oc4ccc(S(=O)(=O)CC)cc43)CC2)CC1 | 0.2 µM | > 15.8 µM | 0.398 µM | 1.58 µM | 5.01 µM | – | – | – | – | – | – | – | –
COCCO[C@H]1CC[C@](C)(N2CCC(n3c(=O)oc4ccc(C#N)cc43)CC2)CC1 | 0.01 µM | 2.51 µM | 3.98 µM | 0.794 µM | 1 µM | 23 mL/min/kg | 1.7 | 61% | 42% | 75% | Active | Dose-dependent effect | –
CCO[C@H]1CC[C@](C)(N2CCC(n3c(=O)oc4ccc(OC)cc43)CC2)CC1 | 0.00251 µM | 0.398 µM | 1.58 µM | 0.158 µM | 0.158 µM | – | – | – | – | – | – | – | –
CCO[C@H]1CC[C@](C)(N2CCC(N3C(=O)Cc4ccc(C)cc43)CC2)CC1 | 0.000398 µM | 0.1 µM | 0.126 µM | 0.0316 µM | 0.02 µM | – | – | – | – | – | – | – | –
CO[C@H]1CC[C@](C)(N2CCC(n3c(=O)oc4ccc(C)cc43)CC2)CC1 | 0.00794 µM | 1.26 µM | 2 µM | 0.501 µM | 0.398 µM | – | – | – | – | – | – | – | –
CCCO[C@H]1CC[C@](C)(N2CCC(N3C(=O)Cc4ccc(C)cc43)CC2)CC1 | 0.000501 µM | 0.0631 µM | 0.0631 µM | 0.0398 µM | 0.02 µM | 85 mL/min/kg | – | 94% | 80% | – | – | – | 5.7
CCO[C@H]1CC[C@](C)(N2CCC(n3c(=O)oc4ccc(S(C)(=O)=O)cc43)CC2)CC1 | 0.0126 µM | 2.51 µM | 1.26 µM | 1.58 µM | 1.26 µM | – | – | – | – | – | – | – | –
Cc1cc2c(cc1F)[nH]c(=O)n2C1CCN(C2CCOCC2)CC1 | 0.00501 µM | – | 2.51 µM | 0.251 µM | – | – | – | – | – | – | – | – | –
CCCO[C@H]1CC[C@](C)(N2CCC(n3c(=O)oc4ccc(S(C)(=O)=O)cc43)CC2)CC1 | 0.00251 µM | 0.794 µM | 3.16 µM | 0.501 µM | 0.316 µM | 11 mL/min/kg | 0.8 | 74% | 60% | – | – | – | –
CCO[C@H]1CC[C@](C)(N2CCC(n3c(=O)oc4ccccc43)CC2)CC1 | 0.0251 µM | > 15.8 µM | > 15.8 µM | 0.126 µM | 1 µM | – | – | – | – | – | – | – | –
CO[C@H]1CC[C@](C)(N2CCC(N3C(=O)Cc4ccc(C)cc43)CC2)CC1 | 0.00316 µM | 0.631 µM | 0.316 µM | 0.158 µM | 0.126 µM | – | – | – | – | – | – | – | –
CCCO[C@H]1CC[C@](C)(N2CCC(n3c(=O)[nH]c4cc(F)c(C)cc43)CC2)CC1 | 0.000398 µM | 0.02 µM | 0.0794 µM | 0.0126 µM | 0.0126 µM | – | – | – | – | – | – | – | –
CCO[C@H]1CC[C@](C)(N2CCC(n3c(=O)oc4ccc(C#N)cc43)CC2)CC1 | 0.00316 µM | 2.51 µM | 2.51 µM | 0.794 µM | 0.398 µM | – | – | – | – | – | – | – | –
COCCO[C@H]1CC[C@](C)(N2CCC(n3c(=O)oc4ccc(C)cc43)CC2)CC1 | 0.00251 µM | 0.631 µM | 0.631 µM | 0.2 µM | 0.158 µM | – | – | – | – | – | – | – | –
